Measured values reported in patent US20250231185A1, “Coronavirus T Cell Epitopes, Megapools and Uses Thereof” (La Jolla Institute for Immunology, priority 2021, published 2025).
Read-outs that look alike come from different tables or passages of the source.

Assays:
CD4+ T cells = details: cited from earlier work; for Restriction: T cell subset (CD4 or CD8) recognizing the SARS-CoV-2 epitope
CD8+ T cells [1] = details: cited from earlier work
CD8+ T cells [2] = experiment: Meta-analysis of published SARS-CoV-2 CD8 T cell epitope data curated in the IEDB (25 studies); type: cell-based, human; details: for Dominant: dominant = recognized by 3 or more donors/different studies
[3] = T cell type (CD4 or CD8) recognizing the SARS-CoV-2 epitope
[4] = SARS-CoV-2-derived CD8 epitopes
[5] = SARS-CoV-2 Ag S, T cell type recognizing the epitope

| Substance | Restriction (CD8+ T cells [1]; [5]) | Dominant (CD8+ T cells [2]; SARS-CoV-2 Ag S, CD8 epitopes) | also measured |
| --- | --- | --- | --- |
| 1 (SEETGTLIVNSVLLF) [compound 1] | – | – | Allele(s) (CD4+ T cells; HLA class II allele(s) identified as MHC restriction elements of the CD4 epitope): DQB1*03:01; Restriction (CD4+ T cells): CD4 |
| 2 (FLLVTLAILTALRLC) [compound 2] | – | – | Restriction (CD4+ T cells): CD4 |
| 1057 (ALLADKFPV) [compound 1057] | – | – | Restriction (CD8+ T cells [1]; [3]): CD8; Dominant (CD8+ T cells [2]; [4]): Yes (more dominant epitopes are defined by being recognized by 3 or more donors/different studies) |
| 1061 (SYATHSDKF) [compound 1061] | – | – | Restriction (CD8+ T cells [1]; [3]): CD8; Dominant (CD8+ T cells [2]; [4]): Yes (more dominant epitopes are defined by being recognized by 3 or more donors/different studies) |
| 1065 (MMISAGFSL) [compound 1065] | – | – | Restriction (CD8+ T cells [1]; [3]): CD8; Dominant (CD8+ T cells [2]; [4]): Yes (more dominant epitopes are defined by being recognized by 3 or more donors/different studies) |
| 1067 (KQFDTYNLW) [compound 1067] | – | – | Restriction (CD8+ T cells [1]; [3]): CD8; Dominant (CD8+ T cells [2]; [4]): Yes (more dominant epitopes are defined by being recognized by 3 or more donors/different studies) |
| 1069 (NLWNTFTRL) [compound 1069] | – | – | Restriction (CD8+ T cells [1]; [3]): CD8; Dominant (CD8+ T cells [2]; [4]): Yes (more dominant epitopes are defined by being recognized by 3 or more donors/different studies) |
| 1072 (KVDGVDVEL) [compound 1072] | – | – | Restriction (CD8+ T cells [1]; [3]): CD8; Dominant (CD8+ T cells [2]; [4]): Yes (more dominant epitopes are defined by being recognized by 3 or more donors/different studies) |
| 1082 (LLLDDFVEII) [compound 1082] | – | – | Restriction (CD8+ T cells [1]; [3]): CD8; Dominant (CD8+ T cells [2]; [4]): Yes (more dominant epitopes are defined by being recognized by 3 or more donors/different studies) |
| 1084 (MLWCKDGHV) [compound 1084] | – | – | Restriction (CD8+ T cells [1]; [3]): CD8; Dominant (CD8+ T cells [2]; [4]): Yes (more dominant epitopes are defined by being recognized by 3 or more donors/different studies) |
| 1085 (GVAMPNLYK) [compound 1085] | – | – | Restriction (CD8+ T cells [1]; [3]): CD8; Dominant (CD8+ T cells [2]; [4]): Yes (more dominant epitopes are defined by being recognized by 3 or more donors/different studies) |
| 1087 (KMQRMLLEK) [compound 1087] | – | – | Restriction (CD8+ T cells [1]; [3]): CD8; Dominant (CD8+ T cells [2]; [4]): Yes (more dominant epitopes are defined by being recognized by 3 or more donors/different studies) |
| 1303 (NYNYLYRLF) [compound 1303] | CD8 | Yes (more dominant epitopes are defined by being recognized by 3 or more donors/different studies) | – |
| 1304 (NYNYLYRLFRK) [compound 1304] | CD8 | Yes (more dominant epitopes are defined by being recognized by 3 or more donors/different studies) | – |
| 1313 (YFPLQSYGF) [compound 1313] | CD8 | Yes (more dominant epitopes are defined by being recognized by 3 or more donors/different studies) | – |
| 1315 (FQPTNGVGY) [compound 1315] | CD8 | Yes (more dominant epitopes are defined by being recognized by 3 or more donors/different studies) | – |
| 1319 (QPYRVVVL) [compound 1319] | CD8 | Yes (more dominant epitopes are defined by being recognized by 3 or more donors/different studies) | – |
| 1321 (SFELLHAPATV) [compound 1321] | CD8 | Yes (more dominant epitopes are defined by being recognized by 3 or more donors/different studies) | – |
| 1324 (GPKKSTNLV) [compound 1324] | CD8 | Yes (more dominant epitopes are defined by being recognized by 3 or more donors/different studies) | – |
| 1342 (IGAEHVNNSY) [compound 1342] | CD8 | Yes (more dominant epitopes are defined by being recognized by 3 or more donors/different studies) | – |
| 1345 (IPIGAGICASY) [compound 1345] | CD8 | Yes (more dominant epitopes are defined by being recognized by 3 or more donors/different studies) | – |
| 1347 (SPRRARSVA) [compound 1347] | CD8 | Yes (more dominant epitopes are defined by being recognized by 3 or more donors/different studies) | – |
| 1350 (SVASQSIIAY) [compound 1350] | CD8 | Yes (more dominant epitopes are defined by being recognized by 3 or more donors/different studies) | – |
| 1351 (VASQSIIAY) [compound 1351] | CD8 | Yes (more dominant epitopes are defined by being recognized by 3 or more donors/different studies) | – |
| 1352 (SIIAYTMSL) [compound 1352] | CD8 | Yes (more dominant epitopes are defined by being recognized by 3 or more donors/different studies) | – |
| 1361 (FTISVTTEIL) [compound 1361] | CD8 | Yes (more dominant epitopes are defined by being recognized by 3 or more donors/different studies) | – |

| Substance | Restriction (CD8+ T cells [1]; [5]) | Dominant (CD8+ T cells [2]; SARS-CoV-2 Ag S, CD8 epitopes) | also measured |
| --- | --- | --- | --- |
| 1362 (TEILPVSMTK) [compound 1362] | CD8 | Yes (more dominant epitopes are defined by being recognized by 3 or more donors/different studies) | – |
| 1365 (STECSNLLLQY) [compound 1365] | CD8 | Yes (more dominant epitopes are defined by being recognized by 3 or more donors/different studies) | – |
| 1366 (TECSNLLLQY) [compound 1366] | CD8 | Yes (more dominant epitopes are defined by being recognized by 3 or more donors/different studies) | – |
| 1367 (LLQYGSFCT) [compound 1367] | CD8 | Yes (more dominant epitopes are defined by being recognized by 3 or more donors/different studies) | – |
| 1379 (LLFNKVTLA) [compound 1379] | CD8 | Yes (more dominant epitopes are defined by being recognized by 3 or more donors/different studies) | – |
| 1386 (LTDEMIAQY) [compound 1386] | CD8 | Yes (more dominant epitopes are defined by being recognized by 3 or more donors/different studies) | – |
| 1389 (MIAQYTSAL) [compound 1389] | CD8 | Yes (more dominant epitopes are defined by being recognized by 3 or more donors/different studies) | – |
| 1392 (LQIPFAMQMAY) [compound 1392] | CD8 | Yes (more dominant epitopes are defined by being recognized by 3 or more donors/different studies) | – |
| 1396 (TQNVLYENQK) [compound 1396] | CD8 | Yes (more dominant epitopes are defined by being recognized by 3 or more donors/different studies) | – |
| 1398 (NQKLIANQF) [compound 1398] | CD8 | Yes (more dominant epitopes are defined by being recognized by 3 or more donors/different studies) | – |
| 1401 (AQALNTLVKQL) [compound 1401] | CD8 | Yes (more dominant epitopes are defined by being recognized by 3 or more donors/different studies) | – |
| 1405 (VLNDILSRL) [compound 1405] | CD8 | Yes (more dominant epitopes are defined by being recognized by 3 or more donors/different studies) | – |
| 1421 (YHLMSFPQSA) [compound 1421] | CD8 | Yes (more dominant epitopes are defined by being recognized by 3 or more donors/different studies) | – |
| 1422 (HLMSFPQSA) [compound 1422] | CD8 | Yes (more dominant epitopes are defined by being recognized by 3 or more donors/different studies) | – |
| 1425 (FPQSAPHGVVF) [compound 1425] | CD8 | Yes (more dominant epitopes are defined by being recognized by 3 or more donors/different studies) | – |
| 1428 (APHGVVFLHV) [compound 1428] | CD8 | Yes (more dominant epitopes are defined by being recognized by 3 or more donors/different studies) | – |
| 1431 (VVFLHVTYV) [compound 1431] | CD8 | Yes (more dominant epitopes are defined by being recognized by 3 or more donors/different studies) | – |
| 1442 (GTHWFVTQR) [compound 1442] | CD8 | Yes (more dominant epitopes are defined by being recognized by 3 or more donors/different studies) | – |
| 1452 (RLNEVAKNL) [compound 1452] | CD8 | Yes (more dominant epitopes are defined by being recognized by 3 or more donors/different studies) | – |
| 1453 (NLNESLIDL) [compound 1453] | CD8 | Yes (more dominant epitopes are defined by being recognized by 3 or more donors/different studies) | – |
| 1458 (YEQYIKWPWYI) [compound 1458] | CD8 | Yes (more dominant epitopes are defined by being recognized by 3 or more donors/different studies) | – |
| 1461 (QYIKWPWYI) [compound 1461] | CD8 | Yes (more dominant epitopes are defined by being recognized by 3 or more donors/different studies) | – |
| 1462 (KWPWYIWLGF) [compound 1462] | CD8 | Yes (more dominant epitopes are defined by being recognized by 3 or more donors/different studies) | – |
| 1466 (SEPVLKGVKL) [compound 1466] | CD8 | Yes (more dominant epitopes are defined by being recognized by 3 or more donors/different studies) | – |
| YLQPRTFLL [SEQ ID NO: 1481] | – | – | recognized in subjects (CD8+ T cells [1]; Ferretti et al., 67% of the subjects tested): ≥ 3 subjects; IFN-f response (CD8+ T cells [1]; Habel et al., 14 peptides screened, HLA-A*02:01): strongest; detected in HLA-A2+ individuals (CD8+ T cells [1]; Nielsen study, HLA-A*02:01): 81%; responses detected in patients (CD8+ T cells [1]; Rha et al., 37 of 112 and 2 of 40 patients): 33%; MHC class I multimer+ cells in unexposed subjects (CD8+ T cells [1]; Rha et al.): not detected; dominance as reported (CD8+ T cells [1]; Sahin et al.): most dominant epitope; found to be positive in independent studies (CD8+ T cells [2]; overall, all curated studies): 11 independent studies |
